Test results published in patent US12509437B2, “Substituted thiophene carboxamides and derivatives thereof as microbicides” (Bayer Aktiengesellschaft, priority 2019, dated 2025).
Read-outs that look alike come from different tables or passages of the source.

Assays:
[1] = test system: salicylate responsive promoter sequence of the PR1 (pathogenesis-related protein I) gene (AT2G14610); assay: Induction of defense gene expression in Arabidopsis thaliana (PR1 promoter-GFP reporter plants); format: in vivo; settings: 72 h, 3rd day after spraying, mock treated leaves set as 1.00, read-out: relative fluorescence value
Procedure, shortened: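 Transgenic A. thaliana carrying GFP under the salicylate-responsive PR1 promoter, grown five days, then sprayed with compounds. Whole-plant fluorescence imaged and quantified on day 3 post-spray, expressed relative to mock-treated leaf background set at 1.00.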

[2] = test system: Pseudomonas syringae pv. tomato; assay: Pseudomonas syringae pv. tomato in vitro cell test; format: cell-based; settings: 20 ppm of active ingredient, 24 h of incubation, read-out: efficacy (inhibition of bacteria growth; no direct activity)
Experimental: (§1) • Solvent: DMSO • Culture medium: LB broth medium (Luria Broth Miller) Sigma • Inoculum: bacteria suspension Compounds were solubilized in DMSO and the solution used to prepare the required range of concentrations. The final concentration of DMSO used in the assay was ≤1%. Inoculum was prepared from a pre-culture of bacteria grown in liquid medium and diluted to the desired optical density (OD). Compounds were evaluated for their ability to inhibit bacteria growth in liquid culture assay. The compounds were added in the desired concentrations to culture medium containing the bacteria suspension. After 24 h of incubation, the efficacy of compounds was determined by spectrometric measurement of bacteria growth. Inhibition was determined by comparing the absorbance values in wells containing the compounds with the absorbance in control wells without active ingredients.

[3] = LogP by HPLC on reversed phase columns (EEC directive 79/831 Annex V.A8); format: physicochemical; settings: reversed phase HPLC columns
Procedure, shortened: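 Reversed-phase HPLC, calibrated with straight-chain alkan-2-ones (C3–C16) of known LogP; values by linear interpolation of retention times between successive alkanones. Multiple values from one method are joined by "+"; lambda-max taken from 200–400 nm UV spectra at chromatographic peaks.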

[4] = test system: Alternaria alternata; assay: Alternaria alternata in vitro cell test; format: cell-based; settings: 120 h, 5 days incubation, read-out: efficacy (inhibition of fungal growth; no direct activity); for inhibition at 5 ppm: 5 ppm of active ingredient; for inhibition at 20 ppm: 20 ppm of active ingredient
Experimental: (§2) • Solvent: DMSO • Culture medium: 14.6 g anhydrous D-glucose (VWR), 7.1 g Mycological Peptone (Oxoid), 1.4 g granulated Yeast Extract (Merck), QSP 1 liter • Inoculum: spores suspension Fungicides were solubilized in DMSO and the solution used to prepare the required range of concentrations. The final concentration of DMSO used in the assay was ≤[…]1%. A spore suspension of A. alternata was prepared and diluted to the desired spore density. Fungicides were evaluated for their ability to inhibit spore germination and mycelium growth in liquid culture assay. The compounds were added in the desired concentration to the culture medium with spores. After 5 days incubation, fungi-toxicity of compounds was determined by spectrometric measurement of mycelium growth. Inhibition of fungal growth was determined by comparing the absorbance values in wells containing the fungicides with the absorbance in control wells without fungicides.

[5] = test system: Peronospora parasitica; assay: In vivo preventive test on Peronospora parasitica (Crucifer downy mildew) on cabbage; settings: Hyaloperonospora parasitica, 120 h, sprayed 72 hours before inoculation, evaluated 5 days after inoculation, read-out: efficacy; for pest or weed control at 125 ppm: 125 ppm of active ingredient; for pest or weed control at 500 ppm: 500 ppm of active ingredient; for pest or weed control at 31 ppm: 31 ppm of active ingredient
Procedure, shortened: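 Young cabbage plants were sprayed with compound in aqueous acetone/DMSO/Tween, then inoculated 72 h later with P. parasitica spores and held 5 days at 20 °C, 100% RH. Efficacy scored 5 days post-inoculation: 0% equals solvent-treated controls, 100% means no disease.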

[6] = test system: Colletotrichum lindemuthianum; assay: In vivo preventive test on Colletotrichum lindemuthianum (Anthracnose on bean); settings: Colletotrichum lindemuthianum, 144 h, sprayed 72 hours before inoculation, evaluated 6 days after inoculation, read-out: efficacy; for pest or weed control at 500 ppm: 500 ppm of active ingredient; for pest or weed control at 31 ppm: 31 ppm of active ingredient; for pest or weed control at 125 ppm: 125 ppm of active ingredient
Experimental: The tested active ingredients were prepared by homogenization in a mixture of acetone/Dimethyl sulfoxide/Tween®, and then diluted with water to obtain the desired active material concentration.
The young plants of bean were treated by spraying the active ingredient prepared as described above. Control plants were treated only with an aqueous solution of acetone/Dimethyl sulfoxide/Tween®.
After 72 hours, the plants were contaminated by spraying the leaves with an aqueous suspension of Colletotrichum lindemuthianum spores. The contaminated bean plants were incubated for 24 hours at 20° C. and at 100% relative humidity and then for 5 days at 20° C. and at 90% relative humidity.
The test was evaluated 6 days after the inoculation. 0% means an efficacy which corresponds to that of the control plants while an efficacy of 100% means that no disease was observed.

[7] = test system: Xanthomonas campestris pv. campestris; assay: Xanthomonas campestris pv. campestris in vitro cell test; format: cell-based; settings: 24 h of incubation, read-out: efficacy (inhibition of bacteria growth; no direct activity); for inhibition at 5 ppm: 5 ppm of active ingredient; for inhibition at 20 ppm: 20 ppm of active ingredient
Experimental: as §1

[8] = test system: Colletotrichum lindemuthianum; assay: Colletotrichum lindemuthianum in vitro cell test; format: cell-based; settings: 144 h, 6 days incubation, read-out: efficacy (inhibition of fungal growth; no direct activity); for inhibition at 5 ppm: 5 ppm of active ingredient; for inhibition at 20 ppm: 20 ppm of active ingredient
Experimental: as §2, with “of C. lindemuthianum” for “of A. alternata”, “inhibit spores” for “inhibit spore”, “After 6” for “After 5”

[9] = test system: Uromyces appendiculatus; assay: In vivo preventive test on Uromyces appendiculatus (bean rust); settings: 240 h, sprayed 72 hours before inoculation, evaluated 10 days after inoculation, read-out: efficacy; for pest or weed control at 125 ppm: 125 ppm of active ingredient; for pest or weed control at 500 ppm: 500 ppm of active ingredient
Procedure, shortened: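 Young bean plants sprayed with compound in acetone/DMSO/Tween diluted in water, then inoculated 72 h later with spore suspension. Incubated 24 h at 20° C., 100% RH, then 9 days at 20° C., 70-80% RH. Efficacy scored 10 days post-inoculation, 0% = untreated-control level, 100% = no disease.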

| Compound | chromatographic logP ([3]; method [a]) | chromatographic logP ([3]; preparation examples, method not indicated, read-out: Log P) | fold induction at 75 ppm [1] | inhibition at 20 ppm [2] | inhibition at 5 ppm [4] | inhibition at 20 ppm [4] | pest or weed control at 125 ppm [5] | pest or weed control at 500 ppm [5] | pest or weed control at 500 ppm [6] | inhibition at 5 ppm [7] | inhibition at 20 ppm [7] | inhibition at 5 ppm [8] | pest or weed control at 125 ppm [9] | pest or weed control at 500 ppm [9] | fold induction at 300 ppm [1] | pest or weed control at 31 ppm [5] | pest or weed control at 31 ppm [6] | pest or weed control at 125 ppm [6] | inhibition at 20 ppm [8] | pest or weed control at 31 ppm ([9]; 31 ppm of active ingredient) |
| --- | --- | --- | --- | --- | --- | --- | --- | --- | --- | --- | --- | --- | --- | --- | --- | --- | --- | --- | --- | --- |
| CCOC(=O)C(Cc1c[nH]c2ccccc12)NC(=O)c1sc(Cl)c(Cl)c1C (stereo not shown) [I.040] | 4.08 |  | > 2 | ≤ 30% |  |  |  | 90 to 100% | 90 to 100% | ≤ 30% | ≤ 30% |  |  |  | > 2 |  |  | 90 to 100% |  |  |
| COC(=O)C(CC(F)F)NC(=O)c1sc(Cl)c(Cl)c1C (stereo not shown) [I.043] | 3.25 |  |  | ≤ 30% | ≤ 30% | ≤ 30% | 90 to 100% | 90 to 100% | 90 to 100% | ≤ 30% | ≤ 30% | ≤ 30% | 80 to 89% | 90 to 100% | > 2 | 90 to 100% | 90 to 100% | 90 to 100% |  |  |
| CCOC(=O)C(CC(N)=O)NC(=O)c1sc(Cl)c(Cl)c1C (stereo not shown) [I.045] | 2.28 |  |  | ≤ 30% | ≤ 30% | ≤ 30% | 90 to 100% | 90 to 100% | 80 to 89% | ≤ 30% | ≤ 30% | ≤ 30% |  | 90 to 100% | > 2 | 90 to 100% |  |  | ≤ 30% |  |

More lines, main results first:

| chromatographic logP ([3]; method [a]) | chromatographic logP ([3]; preparation examples, method not indicated, read-out: Log P) | Compound | fold induction at 75 ppm [1] | inhibition at 20 ppm [2] | inhibition at 5 ppm [4] | inhibition at 20 ppm [4] | pest or weed control at 125 ppm [5] | pest or weed control at 500 ppm [5] | pest or weed control at 500 ppm [6] | inhibition at 5 ppm [7] | inhibition at 20 ppm [7] | inhibition at 5 ppm [8] | pest or weed control at 125 ppm [9] | pest or weed control at 500 ppm [9] | fold induction at 300 ppm [1] | pest or weed control at 31 ppm [5] | pest or weed control at 31 ppm [6] | pest or weed control at 125 ppm [6] | inhibition at 20 ppm [8] | pest or weed control at 31 ppm ([9]; 31 ppm of active ingredient) |
| --- | --- | --- | --- | --- | --- | --- | --- | --- | --- | --- | --- | --- | --- | --- | --- | --- | --- | --- | --- | --- |
| 3.48 |  | C=CC1CC1(NC(=O)c1sc(Br)c(Br)c1C)C(=O)OC (stereo not shown) [I.003] | > 2 | ≤ 30% | ≤ 30% | ≤ 30% | 80 to 89% | 90 to 100% | 80 to 89% | ≤ 30% | ≤ 30% | ≤ 30% | 90 to 100% | 90 to 100% |  |  |  |  |  |  |
| 2.9 |  | CCOC(=O)C1(NC(=O)c2sc(Br)c(Br)c2C)COC1 [I.014] | > 2 | ≤ 30% | ≤ 30% | ≤ 30% | 90 to 100% | 90 to 100% | 90 to 100% | ≤ 30% | ≤ 30% | ≤ 30% | 90 to 100% | 90 to 100% | > 2 | 90 to 100% | 70 to 79% | 80 to 89% | ≤ 30% | 90 to 100% |
|  | 3.72 | Cc1c(C(=S)N[C@H](C(=O)O)C(C)C)sc(Br)c1Br [I.031, N-[(4,5-dibromo-3-methyl-2-thienyl)carbonothioyl]valine] | > 2 | ≤ 30% | ≤ 30% | ≤ 30% | 90 to 100% | 90 to 100% | 90 to 100% | ≤ 30% | ≤ 30% | ≤ 30% |  | 70 to 79% | > 2 |  |  |  | ≤ 30% |  |
